{
  "source": "patent US6444852B1",
  "about": "“Amines useful in inhibiting gas hydrate formation” (Goldschmidt Chemical Corporation, priority 1999, dated 2002)",
  "key": {"[1]": {"experiment": "Behavior (solubility/dispersibility) in water and […] brine at 5% concentration", "assay_type": "physicochemical", "conditions": "5% concentration as is", "description": "The compounds tested are set forth in the following Table 1, CE# denotes a comparative example, whereas S# denotes a compound of the present invention."}, "[2]": {"experiment": "Anti-agglomeration of gas hydrates in presence of crude oil (high-pressure autoclave)", "conditions": "for State of the hydrates after depressurization: 1.125% solvent-free basis in salt water, 3300 psi, 40° F. 16 hours", "description": "The comparative test was carried out at a 50:50 oil to water ratio.\nThe crude oil was heated to 150° F. to dissolve waxes. […] To saturate the liquid with gas, after 30 minutes, the agitation was reduced to 100 rpm and the autoclave was cooled at 10° F./hr to 40° F., at which time, agitation was stopped and the 40° F. temperature was maintained for 16 hours.\nAfter the 16 hour time period, agitation was restarted at 500 rpm to determine the torque required and the experiment was run for 5 hours, if possible. The autoclave was then rapidly depressurized and the state of the hydrates was observed."}},
  "data": [
    {"compound": "CCCCCCCCCCCCCCCC[N+](CCCC)(CCCC)CCCC.[Br-]", "note": "[CE2, Hexadecyl tributyl ammonium bromide, reference compound]", "values": [
      {"measurement": "Behavior in Water", "setting": "[1]", "result": "Insoluble"}
    ]},
    {"compound": "C12-C14 oxypropyl dibutyl amino propyl tributylammonium dibromide [Sample S5]", "values": [
      {"measurement": "Behavior in […] Brine", "setting": "[1]", "result": "Soluble"},
      {"measurement": "Behavior in Water", "setting": "[1]", "result": "Soluble"}
    ]},
    {"compound": "C12-C14 oxypropyl dibutyl ethylammonium ethylsulfate [Sample S4]", "values": [
      {"measurement": "Behavior in […] Brine", "setting": "[1]", "result": "Soluble"},
      {"measurement": "Behavior in Water", "setting": "[1]", "result": "Soluble"}
    ]},
    {"compound": "C12-C14 oxypropyl dibutyl methylammonium methyl sulfate [Sample S2]", "values": [
      {"measurement": "Behavior in […] Brine", "setting": "[1]", "result": "Soluble"},
      {"measurement": "Behavior in Water", "setting": "[1]", "result": "Soluble"}
    ]},
    {"compound": "C12-C14 oxypropyl tributylammonium bromide [Sample S1]", "values": [
      {"measurement": "State of the hydrates after depressurization", "setting": "[2]; oil to water 50:50", "result": "very small particles which were creamy in texture"},
      {"measurement": "State of the hydrates after depressurization", "setting": "[2]; oil to water 70:30", "result": "very small particles which were creamy in texture"},
      {"measurement": "Gas hydrates on the walls of the reactor", "setting": "[2]; 1.125% solvent-free basis, 70:30 and 50:50 ratios", "result": "No gas hydrates were observed on the walls of the reactor"},
      {"measurement": "Effectiveness as anti-agglomeration agent", "setting": "[2]; low use levels", "result": "highly effective"}
    ]}
  ]
}
